From ChEMBL document CHEMBL1201862, “PubChem BioAssay data set” (2004)
“And” between values parts separate entries of the source, which are not always exact repeats. Equal values may be shown once. The source made the active and inactive calls.

Assays:
Cytochrome P450 1A2 = target: T1, Cytochrome P450 1A2 (Homo sapiens, UniProt P05177);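 also: PubChem cytochrome P450 panel assay, CYP1A2 panel member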
T1 sequence (P05177 whole entry): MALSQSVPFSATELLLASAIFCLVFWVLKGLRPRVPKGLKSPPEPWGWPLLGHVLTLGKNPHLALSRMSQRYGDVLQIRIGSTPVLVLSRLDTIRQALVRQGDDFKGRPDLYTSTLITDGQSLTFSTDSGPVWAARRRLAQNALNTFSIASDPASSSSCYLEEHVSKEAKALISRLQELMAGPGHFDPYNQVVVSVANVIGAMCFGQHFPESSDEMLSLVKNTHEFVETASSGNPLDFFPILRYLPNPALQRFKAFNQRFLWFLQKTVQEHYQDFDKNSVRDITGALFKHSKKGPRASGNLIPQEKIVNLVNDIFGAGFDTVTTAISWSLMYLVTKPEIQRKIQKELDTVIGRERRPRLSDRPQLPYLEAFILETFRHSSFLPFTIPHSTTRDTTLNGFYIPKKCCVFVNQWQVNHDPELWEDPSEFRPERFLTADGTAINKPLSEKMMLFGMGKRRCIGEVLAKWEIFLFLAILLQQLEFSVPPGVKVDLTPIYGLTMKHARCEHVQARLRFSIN

Cytochrome P450 2C19 = Cytochrome P450 2C19 (Homo sapiens, UniProt P33261); assay: Cytochrome panel assay with activity outcomes. Panel member name: p450-cyp2c19 Compounds with AC50 equal or less than 10 uM are considered active; format: functional
Cytochrome P450 2C19, sequence (P33261 whole entry): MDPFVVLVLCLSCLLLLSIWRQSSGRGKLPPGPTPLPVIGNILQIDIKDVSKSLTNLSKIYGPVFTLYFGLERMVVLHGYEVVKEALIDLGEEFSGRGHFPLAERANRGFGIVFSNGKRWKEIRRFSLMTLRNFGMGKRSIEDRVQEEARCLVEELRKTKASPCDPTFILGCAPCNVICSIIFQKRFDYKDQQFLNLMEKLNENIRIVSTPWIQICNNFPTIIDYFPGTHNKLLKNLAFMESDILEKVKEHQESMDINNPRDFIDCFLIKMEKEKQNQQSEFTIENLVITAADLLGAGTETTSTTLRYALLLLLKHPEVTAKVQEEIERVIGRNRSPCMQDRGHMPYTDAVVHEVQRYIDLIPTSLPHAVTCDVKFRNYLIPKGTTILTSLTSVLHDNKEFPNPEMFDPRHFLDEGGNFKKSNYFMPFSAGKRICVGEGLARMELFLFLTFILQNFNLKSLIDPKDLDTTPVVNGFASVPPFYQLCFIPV

Cytochrome P450 3A4 = Cytochrome P450 3A4 (Homo sapiens, UniProt P08684);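 also: CYP3A4 tested as one member of a cytochrome P450 panel screen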
Cytochrome P450 3A4, sequence (P08684 whole entry): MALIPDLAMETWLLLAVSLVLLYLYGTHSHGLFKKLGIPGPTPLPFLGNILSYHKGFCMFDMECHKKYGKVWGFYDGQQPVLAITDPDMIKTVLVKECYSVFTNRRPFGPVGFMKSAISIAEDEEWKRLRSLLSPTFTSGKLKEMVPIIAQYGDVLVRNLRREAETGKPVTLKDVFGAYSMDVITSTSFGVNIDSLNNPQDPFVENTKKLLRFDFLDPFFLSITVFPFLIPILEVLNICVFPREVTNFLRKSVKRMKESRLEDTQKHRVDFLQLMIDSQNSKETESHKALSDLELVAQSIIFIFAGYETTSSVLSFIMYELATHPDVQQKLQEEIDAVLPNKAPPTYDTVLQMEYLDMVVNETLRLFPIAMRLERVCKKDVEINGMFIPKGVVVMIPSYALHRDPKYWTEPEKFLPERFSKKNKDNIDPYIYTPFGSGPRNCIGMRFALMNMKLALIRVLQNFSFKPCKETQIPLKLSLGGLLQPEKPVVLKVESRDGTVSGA

Protein RecA = target: T2, Protein RecA (Mycobacterium tuberculosis, UniProt P9WHJ3); assay: Fluorescence Cell-Free Homogeneous Dose Retest to Identify Inhibitors of RecA-Intein Splicing Activity. [Related pubchem assays (depositor defined):AID2097, AID2223, AID489010, AID492950]; format: functional
T2 sequence (P9WHJ3 whole entry): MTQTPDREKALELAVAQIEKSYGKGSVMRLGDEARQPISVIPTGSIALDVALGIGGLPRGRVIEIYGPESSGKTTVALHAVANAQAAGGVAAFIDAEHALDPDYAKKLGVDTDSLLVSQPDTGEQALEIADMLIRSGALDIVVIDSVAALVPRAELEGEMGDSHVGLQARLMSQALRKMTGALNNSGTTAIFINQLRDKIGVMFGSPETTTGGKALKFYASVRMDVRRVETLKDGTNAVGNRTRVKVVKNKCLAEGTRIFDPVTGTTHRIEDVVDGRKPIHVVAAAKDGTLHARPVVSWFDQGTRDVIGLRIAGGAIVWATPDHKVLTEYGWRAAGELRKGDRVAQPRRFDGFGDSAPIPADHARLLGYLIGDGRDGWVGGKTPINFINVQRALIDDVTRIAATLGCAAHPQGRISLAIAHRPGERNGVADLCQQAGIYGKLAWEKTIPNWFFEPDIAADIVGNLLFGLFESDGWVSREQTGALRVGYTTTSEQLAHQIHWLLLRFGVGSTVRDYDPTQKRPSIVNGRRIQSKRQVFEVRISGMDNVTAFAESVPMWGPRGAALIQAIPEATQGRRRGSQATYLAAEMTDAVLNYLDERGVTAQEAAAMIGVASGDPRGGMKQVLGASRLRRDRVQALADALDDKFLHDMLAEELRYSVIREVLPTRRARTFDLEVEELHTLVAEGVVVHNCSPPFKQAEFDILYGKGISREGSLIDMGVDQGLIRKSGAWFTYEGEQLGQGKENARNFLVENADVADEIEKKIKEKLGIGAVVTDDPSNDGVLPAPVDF

[1] = target: T3, Replicative DNA helicase DnaB (Mycobacterium tuberculosis, UniProt P9WMR3); assay: DnaB intein splicing inhibitors, dose response, biochemical, cell-free fluorescence (AID 449749); format: functional
T3 sequence (P9WMR3 whole entry): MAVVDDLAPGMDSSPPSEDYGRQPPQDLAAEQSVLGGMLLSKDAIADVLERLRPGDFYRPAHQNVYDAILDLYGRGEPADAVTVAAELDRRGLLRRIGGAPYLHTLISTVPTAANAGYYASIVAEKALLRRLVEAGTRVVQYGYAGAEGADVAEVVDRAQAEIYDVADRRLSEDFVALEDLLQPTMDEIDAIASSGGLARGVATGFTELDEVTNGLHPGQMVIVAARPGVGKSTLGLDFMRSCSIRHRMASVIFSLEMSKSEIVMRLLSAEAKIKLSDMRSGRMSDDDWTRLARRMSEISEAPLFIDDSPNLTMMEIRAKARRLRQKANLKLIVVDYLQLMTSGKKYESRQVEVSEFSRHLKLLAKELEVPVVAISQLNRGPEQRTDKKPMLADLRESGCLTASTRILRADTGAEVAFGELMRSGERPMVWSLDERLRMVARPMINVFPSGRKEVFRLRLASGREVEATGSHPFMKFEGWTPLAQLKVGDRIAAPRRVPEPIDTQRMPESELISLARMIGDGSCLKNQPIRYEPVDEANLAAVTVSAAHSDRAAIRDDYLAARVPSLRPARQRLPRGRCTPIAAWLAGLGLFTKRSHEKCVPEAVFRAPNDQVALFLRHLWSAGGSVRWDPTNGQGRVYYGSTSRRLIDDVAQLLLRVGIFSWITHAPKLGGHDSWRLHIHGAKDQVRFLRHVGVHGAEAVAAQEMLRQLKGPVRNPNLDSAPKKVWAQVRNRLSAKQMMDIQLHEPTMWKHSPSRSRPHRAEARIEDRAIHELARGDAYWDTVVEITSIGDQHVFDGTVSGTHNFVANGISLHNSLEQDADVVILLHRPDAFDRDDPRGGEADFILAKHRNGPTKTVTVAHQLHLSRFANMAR

[2] = Luminescence Cell-Based Dose Retest to Confirm Inhibitors of Cancer Stem Cells. [Related pubchem assays (depositor defined):AID2717, AID2721]; format: functional; conditions: Homo sapiens
[3] = tested on: Streptococcus sp. 'group A'; assay: Streptococcus pyogenes SK(-)GAS viability under kanamycin – luminescence, BacTiterGlo, confirmation, counter-screen for streptokinase expression inhibitor project, dose response (AID 1900); format: functional, organism-based
Streptococcus = assay: GAS UMAA2166 growth inhibition – luminescence, BacTiterGlo, counter-screen for streptokinase expression inhibitor project, dose response (AID 1915); format: functional, organism-based;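 also: potency for reduction of bacterial viability or growth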

COC(=O)COc1ccsc1C(=O)OC
AC50 (Cytochrome P450 1A2): 28.2 µM (inconclusive)

Cc1cc(NC(=O)C2CCCC2)n(-c2nc3ccccc3[nH]2)n1
AC50 (Cytochrome P450 2C19; read-out: AC50): 10 µM (inconclusive)

COc1ccc(-n2c(=O)cnc3cnc(OC)nc32)cc1
AC50 (Cytochrome P450 1A2): 20 µM (inconclusive)

CC(C)(C)n1nc2c(c1NC(=O)c1ccc(S(=O)(=O)N3CCCCC3)cc1)C[S+]([O-])C2 (stereo not given)
AC50 (Cytochrome P450 2C19; read-out: AC50): 25.1 µM (inconclusive)
AC50 (Cytochrome P450 3A4): 14.1 µM (inconclusive)

Cc1ccc(-c2nc(CN3CCCC(C(=O)N4CCOCC4)C3)c(C)o2)cc1 (stereo not given)
EC50 (Protein RecA): > 380 µM (inactive)
AC50 [1]: > 380 µM (inactive)

CN(C)c1ncc2nc(-c3cc(F)cc(F)c3)c(=O)n(C[C@H]3CCCO3)c2n1
AC50 (Cytochrome P450 1A2): 0.0794 µM (inconclusive)

C[C@](N)(C(=O)O)c1ccc(-c2nnn[nH]2)cc1
AC50 (Cytochrome P450 2C19; read-out: AC50): 7.94 µM (inconclusive)
AC50 (Cytochrome P450 1A2): 39.8 µM (inconclusive)

O=C(O)COc1ccc(/C=C2/SC(=S)N(Cc3ccccc3)C2=O)cc1
EC50 (Protein RecA): 8.33 µM (active)
AC50 [1]: 13.7 µM (active)

CC(Oc1ccccc1)C(=O)Nc1nc2c(s1)C(=O)CC(C)(C)C2 (stereo not given)
AC50 (Cytochrome P450 1A2): 15.8 µM (inconclusive)

COc1cccc(Cn2c(=O)cnc3cnc(Oc4ccccc4)nc32)c1
AC50 (Cytochrome P450 2C19; read-out: AC50): 5.01 µM (inconclusive)

Cc1noc(C)c1C(=O)N1CCC[C@@]2(CCN(C(=O)Nc3ccccc3)C2)C1
AC50 (Cytochrome P450 1A2): 39.8 µM (inconclusive)

COCCn1c(=O)c(-c2cc(F)cc(F)c2)nc2cnc(N3CCOCC3)nc21
AC50 (Cytochrome P450 1A2): 12.6 µM (inconclusive)

CN1CCN(c2ccc(NC(=O)c3ccc(C#N)cc3F)cc2Cl)CC1
AC50 [2]: 11.9 µM (active)

CC(=O)NCCNc1ncnc2ccc(-c3c(C)noc3C)cc12
AC50 (Cytochrome P450 3A4): 25.1 µM (inconclusive)

Cc1ccc(OCC(=O)NNC(=O)c2cccnc2)cc1
AC50 (Cytochrome P450 2C19; read-out: AC50): 3.16 µM (inconclusive)
AC50 (Cytochrome P450 3A4): 25.1 µM (inconclusive)

O=C(NC(=S)Nc1nc(-c2ccc(Br)cc2)cs1)c1cccnc1
AC50 (Cytochrome P450 1A2): 3.55 µM (inconclusive)

O=C(Nc1ccc(O)c(-c2nc3ccccc3o2)c1)C1(c2ccc(Br)cc2)CCCC1
AC50 [2]: > 195 µM (inactive)

CC(C)C(O)(C(C)C)C(C)C
AC50 (Cytochrome P450 2C19): inconclusive

CC(C)C12CN3CC(C(C)C)(CN(C1)C3c1ccco1)C2=O (stereo not given)
AC50 (Cytochrome P450 2C19; read-out: AC50): 28.2 µM (inconclusive)

COc1ccc(NC(=O)CSc2nc(O)cc(=O)n2-c2ccccc2)cc1
EC50 [3]: 23.1 µM (active)
EC50 (Streptococcus): 26.1 µM (active)

CC[C@H]1OC(=O)[C@H](C)[C@@H](O[C@H]2C[C@@](C)(OC)[C@@H](O)[C@H](C)O2)[C@H](C)[C@@H](O[C@@H]2O[C@H](C)C[C@H](N(C)C)[C@H]2O)[C@](C)(O)C[C@@H](C)C(=NOCOCCOC)[C@H](C)[C@@H](O)[C@]1(C)O
EC50 [3]: < 0.06 µM (active)
EC50 (Streptococcus): < 0.06 µM (active)

CC(=O)C(Sc1ncnc2c1nnn2-c1ccc(F)cc1)C(=O)N(C)C (stereo not given)
EC50 (Protein RecA): 15.7 µM (active)
AC50 [1]: 21.8 µM (active)

C#CCCCO/N=C1/C[C@@H](O)[C@@H](O)[C@@H]2[C@@H]3C(=O)N(CCC(=O)OCC)C(=O)[C@H]3CC[C@H]12
AC50 (Cytochrome P450 3A4): 5.01 µM (inconclusive)

C[C@@H](C(=O)Nc1ccc2ccccc2c1)[C@@H]1C[C@@]1(C)[C@@H](NC(=O)c1cnccn1)c1ccccc1
AC50 (Cytochrome P450 1A2): 12.6 µM (inconclusive)

CCOc1ccc(-c2[nH]nc3c2C(c2ccc(O)cc2)C(C#N)=C(N)O3)cc1 (stereo not given)
EC50 (Protein RecA): 1.75 µM (active)
AC50 [1]: 4.62 µM (active)

Nc1ccccc1S(=O)(=O)NC1=NCCCCC1
EC50 (Protein RecA): > 380 µM (inactive)
AC50 [1]: > 380 µM (inactive)

COc1ccc(Oc2ncc3ncc(=O)n(C)c3n2)cc1
AC50 (Cytochrome P450 2C19; read-out: AC50): 31.6 µM (inconclusive)
AC50 (Cytochrome P450 3A4): 25.1 µM (inconclusive)

COc1ccc(-n2c(=O)c(C)nc3cnc(N4CCOCC4)nc32)cc1
AC50 (Cytochrome P450 3A4): 31.6 µM (inconclusive)

OC[C@@H]1O[C@@H](n2cnc3c(NC4CCCCC4)ncnc32)[C@@H](O)[C@H]1O
AC50 (Cytochrome P450 2C19; read-out: AC50): 0.0251 µM (inconclusive)

COc1cccc(Nc2ncc3nc(-c4ccc(Cl)cc4)c(=O)n(CCC#N)c3n2)c1
AC50 (Cytochrome P450 3A4): 2 µM (inconclusive)
AC50 (Cytochrome P450 1A2): 5.01 µM (inconclusive)

CC1=NNC(=O)C1Oc1ccccc1 (stereo not given)
EC50 (Protein RecA): 0.57 µM (active)
AC50 [1]: 0.737 µM (active)

O=c1cc(N2CCC(Cc3ccccc3)CC2)[nH]c(=O)n1C1CCCCC1
AC50 (Cytochrome P450 3A4): 3.55 µM (inconclusive)

Cc1noc(C)c1C(=O)N1CCC2(CCCN(c3ccccn3)C2)CC1
AC50 (Cytochrome P450 3A4): 20 µM (inconclusive)

Cc1c(C)n(CCc2ccccc2)c2ncnc(NCCCN(C)C)c12
AC50 [2]: 3.51 µM (active)

O=C1[C@H]2O[C@@H]2[C@@H](O)[C@H]2[C@H]1CCn1c(=O)n(Cc3cc4c(cc3Cl)OCO4)c(=O)n12
AC50 (Cytochrome P450 3A4): 3.16 µM (inconclusive)

N#Cc1ncc(-c2ccc3c(c2)OCCOCCOCCOCCO3)nc1C#N
EC50 (Protein RecA): 8.97 µM (active)

Cc1ccc(C(=O)CSC2=C(C#N)C(c3ccco3)C3=C(O)CC(C)(C)CC3=N2)cc1 (stereo not given)
AC50 [2]: 2.49 µM (active)

COc1ccc(CC(=O)O/N=C(\N)Cc2ccc(OC)cc2)cc1
AC50 (Cytochrome P450 2C19; read-out: AC50): 14.1 µM (inconclusive)

O=c1c(-c2ccc(Cl)cc2)nc2cncnc2n1Cc1ccccc1
AC50 (Cytochrome P450 2C19; read-out: AC50): 25.1 µM (inconclusive)
AC50 (Cytochrome P450 3A4): 10 µM (inconclusive)

COCCNc1nc(-c2cccc(NS(C)(=O)=O)c2)nc2ccccc12
AC50 (Cytochrome P450 2C19; read-out: AC50): 39.8 µM (inconclusive)

O=C(C1CC(=O)N(C2CCCC2)C1)N1CCC2(CC1)OCCO2 (stereo not given)
AC50 (Cytochrome P450 2C19; read-out: AC50): 39.8 µM (inconclusive)

COC(=O)C/C=C\[C@@H](C)[C@@H](/C=N\O[C@@H](C)c1cn([C@H]2COC[C@H]2O)nn1)OC
AC50 (Cytochrome P450 2C19): inconclusive

SC1=NCCC12C(S)=Nc1ccccc12 (stereo not given)
EC50 (Protein RecA): > 380 µM (inactive)
AC50 [1]: > 380 µM (inactive)

C/C(CC(=O)Nc1ccccn1)=N\NC(=O)c1ccc(C)cc1
EC50 (Protein RecA): 8.84 µM (active)
AC50 [1]: 20.4 µM (active)

CCCc1nc2ccccc2c(=O)n1/N=C/c1c(C)nn(-c2ccc(C)cc2)c1O
EC50 [3]: 2.87 µM (active)
EC50 (Streptococcus): 9.16 µM (active)

O=C(Cc1cc(O)n[nH]1)N/N=C/c1cccc(Cl)c1Cl
EC50 (Protein RecA): 1.51 µM (active) and 1.71 µM (active)
AC50 [1]: 4.36 µM (active) and 2.36 µM (active)

Cn1c(-c2ccc3c(c2)OCO3)cc(=O)c2ccccc21 [GRAVEOLINE]
AC50 (Cytochrome P450 2C19; read-out: AC50): 2 µM (inconclusive)
